# From patent publication US7410989B2, “Compounds, methods and compositions useful for the treatment of bovine viral diarrhea virus (BVDV) infection and hepatitis C virus (HCV) infection” (The University of North Carolina at Chapel Hill, priority 2001, dated 2008)
# Where a name gives a salt, the structure may show the parent alone.
# What was measured:
# BVDV = assay: Screening of antiviral compounds for anti-BVDV activity in MDBK cells; virus titre by immunoperoxidase monolayer assay; assay type: cell-based, bovine viral diarrhea virus; settings: for Day 3 Media TCID50/mL / Day 3 Media % Control / Day 7 Media TCID50/mL / Day 7 Media % Control: culture medium
# Description: 2.0 cm^2 wells in a 24-well plate were seeded with 50 μl of medium from 12 ml of MEM-eq (minimum essential medium (MEM) with Earle's salts supplemented with 10% (v/v) equine serum, sodium bicarbonate (0.75 mg/ml), L-glutamine (0.29 mg/ml), penicillin G (100 U/ml), streptomycin (100 μg/ml), and amphotericin B (0.25 μg/ml)), which was derived by trypsinization of a confluent monolayer of Madin Darby Bovine Kidney (MDBK) cells in a 25 cm^2 flask. Cells were incubated at 38.5° C. with 5% CO2 for 24 hours. The average number of cells per well was determined and later used to calculate appropriate multiplicities of infection (MOI) of BVDV virus. […]
# The inoculated cells incubated for one hour at 38.5° C. with 5% CO2 in humidified air. The medium was removed from the wells, and the cells washed one time with Ca^2+ and Mg^2+-free PBS comprising antiviral compound (12.5 μM) (cells in the wells not initially treated with antiviral compounds were washed without antiviral compound). […] Three days post-inoculation, medium was removed and stored at −20° C. for assay. […] Seven days post-inoculation, medium was removed and stored at −80° C. for serial dilution & assay.
# The MDBK cells were resuspended in MEM-eq with no antiviral compound. Uterine tubal cells (UTC) were freeze-thawed and stored at −80° C. for analysis. UTC lysates were serially diluted with medium from Day 7 and assayed by immunoperoxidase for the presence of BVDV.
# All samples were assayed for BVDV using the immunoperoxidase monolayer assay as described in A. Afshar et al., Can J Vet Res; 55:91-93 (1991). Samples were assayed in triplicate by adding 50 μL of MEM-eq containing approximately 2.5×10^3 MDBK cells to 50-μL of each sample supplemented with 50 μL of fresh MEM-eq in a 96-well culture plate. Plates were incubated for 72 h at 38.5° C. in a humidified atmosphere of 5% CO2 and air before the immunoperoxidase labeling technique was performed as follows:
# After fixation, potentially infected cells were incubated with monoclonal antibodies D89 (M. L. Vickers et al., J Vet Diagn Invest 2, 300-302 (1990); Xue W et al., J Clin Microbiol 28, 1688-1693 […] specific for E2/gp53, a major envelope glycoprotein of BVDV (Xue W et al., Vet Microbiol 57, 105-118 (1997)) and 20.10.6 specific for NS3-p80, a conserved nonstructural protein (W. V. Corapi et al., Am J Vet Res 51, 1388-1394 (1990)). After washing with PBS and Tween 20 to remove unbound antibodies, peroxidase-conjugated rabbit anti-mouse IgG (Jackson Immuno Research Lab, West Grove, Pa.) was added. After a short incubation period, unbound peroxidase-conjugated antibody was removed by washing with PBS and Tween 20. Finally, the enzyme substrate, aminoethyl carbazole (Zymed Laboratories, Inc., South San Francisco, Calif.), which produces a reddish-brown color when oxidized by horseradish peroxidase, was added. Color change was visualized under light microscopy and compared to known positive and negative controls on each plate.
# The tissue culture infective dose 50% (TCID50)/ml of the exposure aliquot was determined by the method of Reed and Muench (L. J. Reed and H. Muench, Am J Hygiene 27, 493-497 (1938). Results of viral detection assays were compared using a Pearson Chi-square test statistic (J. Sall and A. Lehman, JMP Start Statistics (Duxbury Press, Belmont, Calif. (1996), 195-211).
# [1] = 12.5 μM compound, BVDV MOI 0.05
# [2] = 12.5 μM compound, BVDV MOI 0.05, titre as % of no-antiviral control
# [3] = 12.5 μM compound, BVDV MOI 1.0, titre as % of no-antiviral control
# [4] = compound at 0.2 μm, BVDV MOI 0.05
# [5] = compound at 0.4 μm, BVDV MOI 0.05
# [6] = compound at 0.7 μm, BVDV MOI 0.05
# [7] = compound at 1.5 μm, BVDV MOI 0.05
# [8] = compound at 3 μm, BVDV MOI 0.05
# [9] = compound at 6 μm, BVDV MOI 0.05
# [10] = compound at 12 μm, BVDV MOI 0.05
# [11] = compound at 25 μm, BVDV MOI 0.05
# [12] = 12.5 μM compound, BVDV MOI 0.5, titre as % of no-antiviral control
structure (smiles),measurement,setting,value
Cc1cc(NC(=N)N)ccc1-c1ccc(-c2ccc(NC(=N)N)cc2C)o1.Cl.Cl,melting point,,265 to 271 °C (dec.)
Cl.Cl.N=C(N)Nc1ccc(-c2ccc(-c3ccc(NC(=N)N)cc3Cl)o2)c(Cl)c1,melting point,,300 to 304 °C (dec.)
"Nc1ccc(-c2ccc(-c3nc4ccc(C5=NCCN5)cc4[nH]3)o2)cc1 (as salt: salt) [DB 456, 2-[5 (6)-{2-imidazolinyl}-2-benzimidazoyl]-5-(4-aminophenyl)furan]",melting point,,> 300 °C
"O=[N+]([O-])c1ccc(-c2ccc(-c3nc4ccc(C5=NCCN5)cc4[nH]3)o2)cc1 (as salt: salt) [DB 457, 2-[5 (6)-{2-imidazolinyl}-2-benzimidazoyl]-5-(4-nitrophenyl)furan]",melting point,,> 300 °C
N=C(N)c1ccc(-c2ccc(-c3cccc(C(=N)N)c3)[nH]2)cc1 [DB619],Day 7 Cell Lysates TCID50/mL,BVDV; [1],1.10E+06 TCID50/mL
same,Day 7 Cell Lysates % Control,BVDV; [2],55.00%
same,Day 3 Media TCID50/mL,BVDV; [1],3.50E+02 TCID50/mL
same,Day 3 Media % Control,BVDV; [2],0.18%
same,Day 7 Media TCID50/mL,BVDV; [1],2.00E+05 TCID50/mL
same,Day 7 Media % Control,BVDV; [2],38.46%
same,Day 7 Cell Lysates TCID50/mL,"BVDV; 12.5 μM compound, BVDV MOI 1.0",3.50E+05 TCID50/mL
same,Day 7 Cell Lysates % Control,BVDV; [3],56.45%
same,Day 3 Media TCID50/mL,"BVDV; 12.5 μM compound, BVDV MOI 1.0",6.20E+04 TCID50/mL
same,Day 3 Media % Control,BVDV; [3],17.71%
same,Day 7 Media TCID50/mL,"BVDV; 12.5 μM compound, BVDV MOI 1.0",3.50E+04 TCID50/mL
same,Day 7 Media % Control,BVDV; [3],100.00%
N=C(N)Nc1ccc(-c2ccc(-c3ccc(NC(=N)N)cc3)o2)cc1 [DB673],Day 7 Cell Lysates TCID50/mL,BVDV; [1],3.50E+04 TCID50/mL
same,Day 7 Cell Lysates % Control,BVDV; [2],1.75%
same,Day 3 Media TCID50/mL,BVDV; [1],1.00E+02 TCID50/mL
same,Day 3 Media % Control,BVDV; [2],0.05%
same,Day 7 Media TCID50/mL,BVDV; [1],6.20E+03 TCID50/mL
same,Day 7 Media % Control,BVDV; [2],1.19%
same,Day 7 Cell Lysates TCID50/mL,"BVDV; 12.5 μM compound, BVDV MOI 1.0",2.70E+05 TCID50/mL
same,Day 7 Cell Lysates % Control,BVDV; [3],43.55%
same,Day 3 Media TCID50/mL,"BVDV; 12.5 μM compound, BVDV MOI 1.0",3.50E+02 TCID50/mL
same,Day 3 Media % Control,BVDV; [3],0.10%
same,Day 7 Media TCID50/mL,"BVDV; 12.5 μM compound, BVDV MOI 1.0",2.00E+05 TCID50/mL
same,Day 7 Media % Control,BVDV; [3],571.43%
"Nc1ccc(-c2ccc(-c3nc4ccc(C5=NCCN5)cc4[nH]3)o2)cc1 [DB 456, 2-[5 (6)-{2-imidazolinyl}-2-benzimidazoyl]-5-(4-aminophenyl)furan]",Day 3 Cell Lysates % Control,BVDV; [4],100.0000%
same,Day 3 Cell Lysates TCID50/mL,BVDV; [4],3.50E+05 TCID50/mL
same,Day 3 Media % Control,BVDV; [4],31.5000%
same,Day 3 Media TCID50/mL,BVDV; [4],6.30E+05 TCID50/mL
same,Day 3 Cell Lysates % Control,BVDV; [5],1000.0000%
same,Day 3 Cell Lysates TCID50/mL,BVDV; [5],3.50E+06 TCID50/mL
same,Day 3 Media % Control,BVDV; [5],31.5000%
same,Day 3 Media TCID50/mL,BVDV; [5],6.30E+05 TCID50/mL
same,Day 3 Cell Lysates % Control,BVDV; [6],1000.0000%
same,Day 3 Cell Lysates TCID50/mL,BVDV; [6],3.50E+06 TCID50/mL
same,Day 3 Media % Control,BVDV; [6],31.5000%
same,Day 3 Media TCID50/mL,BVDV; [6],6.30E+05 TCID50/mL
same,Day 3 Cell Lysates % Control,BVDV; [7],1000.0000%
same,Day 3 Cell Lysates TCID50/mL,BVDV; [7],3.50E+06 TCID50/mL
same,Day 3 Media % Control,BVDV; [7],25.5000%
same,Day 3 Media TCID50/mL,BVDV; [7],5.10E+05 TCID50/mL
same,Day 3 Cell Lysates % Control,BVDV; [8],177.1429%
same,Day 3 Cell Lysates TCID50/mL,BVDV; [8],6.20E+05 TCID50/mL
same,Day 3 Media % Control,BVDV; [8],17.5000%
same,Day 3 Media TCID50/mL,BVDV; [8],3.50E+05 TCID50/mL
same,Day 3 Cell Lysates % Control,BVDV; [9],10.0000%
same,Day 3 Cell Lysates TCID50/mL,BVDV; [9],3.50E+04 TCID50/mL
same,Day 3 Media % Control,BVDV; [9],1.7500%
same,Day 3 Media TCID50/mL,BVDV; [9],3.50E+04 TCID50/mL
same,Day 3 Cell Lysates % Control,BVDV; [10],1.0000%
same,Day 3 Cell Lysates TCID50/mL,BVDV; [10],3.50E+03 TCID50/mL
same,Day 3 Media % Control,BVDV; [10],0.0310%
same,Day 3 Media TCID50/mL,BVDV; [10],6.20E+02 TCID50/mL
same,Day 3 Cell Lysates % Control,BVDV; [11],0.5714%
same,Day 3 Cell Lysates TCID50/mL,BVDV; [11],2.00E+03 TCID50/mL
same,Day 3 Media % Control,BVDV; [11],0.1750%
same,Day 3 Media TCID50/mL,BVDV; [11],3.50E+03 TCID50/mL
"O=[N+]([O-])c1ccc(-c2ccc(-c3nc4ccc(C5=NCCN5)cc4[nH]3)o2)cc1 [DB 457, 2-[5 (6)-{2-imidazolinyl}-2-benzimidazoyl]-5-(4-nitrophenyl)furan]",Day 3 Cell Lysates TCID50/mL,"BVDV; 12.5 μM compound, BVDV MOI 0.5",3.50E+02 TCID50/mL
same,Day 3 Cell Lysates % Control,BVDV; [12],0.0056%
same,Day 3 Media TCID50/mL,"BVDV; 12.5 μM compound, BVDV MOI 0.5",1.00E+02 TCID50/mL
same,Day 3 Media % Control,BVDV; [12],0.0029%
